Source: ChEMBL document CHEMBL6177952, “Exploring chloro-isoxazole compounds inspired on tetrahydrofuran neolignans as promising antileishmanial agents” (Eur J Med Chem, 2025)
Activity calls are given as the source filed them. The rule behind the calls is not given here.

Experiments:
[1] = tested on: Leishmania amazonensis; test: Antileishmanial activity against leishmania amazonensis IFLA/BR/1967/PH8 promastigotes infected in mouse Peritoneal macrophage incubated for 24 hrs; assay type: functional, organism-based; conditions: IFLA/BR/1967/PH8, Peritoneal macrophage
[2] = Selectivity ratio of CC50 for cytotoxicity against BALB/c mouse Peritoneal macrophage assessed as inhibition of cell growth to IC50 for antileishmanial activity against leishmania amazonensis IFLA/BR/1967/PH8 promastigotes infected in mouse Peritoneal macrophage; assay type: toxicity, cell-based; conditions: peritoneal macrophages, read-out: Ratio CC50/IC50
[3] = tested on: Leishmania amazonensis; test: Antileishmanial activity against leishmania amazonensis infected in BALB/c mouse assessed as reduction in footpad swelling at 5 mg/kg, ILES measured at week 5; assay type: functional, organism-based; conditions: time 5.0 weeks
[4] = tested on: Mitochondrial membrane; test: Induction of mitochondrial membrane potential in Leishmania amazonensis promastigotes at 38.1 uM measured at 48 hrs by flow cytometry analysis; assay type: cell membranes
[5] = tested on: Leishmania amazonensis; test: Antileishmanial activity against Leishmania amazonensis promastigotes assessed as viable apoptotic parasites at 38.1 uM incubated for 24 hrs by Annexin V/7-AAD staining based flow cytometry analysis relative to control; assay type: functional
[6] = Mutagenicity in Salmonella typhimurium TA100 assessed as number of revertant colonies per plate at 50 microg/ml by Ames test; assay type: toxicity; conditions: salmonella enterica subsp. enterica serovar typhimurium; dose 50 µg/ml
[7] = Mutagenicity in Salmonella typhimurium TA102 assessed as number of revertant colonies per plate at 5000 microg/ml in presence of S9 fraction by Ames test; assay type: toxicity, subcellular; conditions: salmonella enterica subsp. enterica serovar typhimurium, dose 5000 µg/ml
[8] = tested on: Leishmania amazonensis; test: Antileishmanial activity against Leishmania amazonensis promastigotes assessed as viable apoptotic parasites at 38.1 uM incubated for 48 hrs by Annexin V/7-AAD staining based flow cytometry analysis relative to control; assay type: functional
[9] = Mutagenicity in Salmonella typhimurium TA98 assessed as number of revertant colonies per plate at 5000 microg/ml by Ames test; assay type: toxicity; conditions: salmonella enterica subsp. enterica serovar typhimurium; dose 5000 µg/ml
[10] = tested on: Leishmania amazonensis; test: Antileishmanial activity against leishmania amazonensis infected in BALB/c mouse assessed as reduction in lesion size at 5 mg/kg, ILES measured at 6 to 9 week post infection; assay type: functional, organism-based; conditions: time 6-9 weeks
[11] = Mutagenicity in Salmonella typhimurium TA102 assessed as number of revertant colonies per plate at 500 microg/ml by Ames test; assay type: toxicity; conditions: salmonella enterica subsp. enterica serovar typhimurium; dose 500 µg/ml
[12] = Cytotoxicity against BALB/c mouse Peritoneal macrophage assessed as inhibition of cell growth incubated for 48 hrs by MTT assay; assay type: toxicity, cell-based; conditions: peritoneal macrophages

IC50 [1]: 38.1 µM | Activity [4]: Active
SMILES: COc1cc(-c2cc(-c3ccc4c(c3)OCO4)on2)c(Cl)c(OC)c1OC
selectivity ratio [2]: 1.3 | Activity [3]: Active | Activity [5]: 95.5% | revertant count [6]: 103 revertants/plate | revertant count [7]: 100 revertants/plate | Activity [8]: 95.2% | revertant count [9]: 21.3 revertants/plate | Activity [10]: Active | revertant count [11]: 161 revertants/plate | CC50 at 48 h [12]: 50.1 µM
